Experimental data from patent publication US10308667B2, “Oxadiazolopyridine derivatives for use as ghrelin O-acyl transferase (GOAT) inhibitors” (Boehringer Ingelheim International GmbH, priority 2016, dated 2019).

Molecular target: human GOAT (Homo sapiens (Human), UniProt Q96T53)
Assay: Determination of hGOAT Activity in HEK293 Cells after Incubation with Test Compound
Assay type: cell-based
Details: HEK293 cells stably transfected with preproghrelin and human GOAT; octanoate-BSA 100 μM; acyl-ghrelin in medium by ELISA after 5 hours
Procedure: Determination of hGOAT Activity in HEK293 Cells after Incubation with Test Compound
HEK293 cells stably transfected with two expression vectors, one coding for preproghrelin cDNA and a second for the expression of human GOATcDNA are used as a cellular model. After feeding the cells with octanoic acid for 5 hours, acyl-ghrelin is measured in cell culture medium by an ELISA procedure.
Cellline: Hek293 hGOAT/PPGhrl Clone #1B8Sodium octanoate, Sigma, Cat.-No. C5038
BD Poly-D-Lysin 384-well Plates, black-clear polystyrene BD Bioscience Cat.-No. […] ELISA human acylated Ghrelin Kit purchased from Bertin Pharman (detailed composition of buffers e.g. wash-puffer, ELISA buffer not known)
Cells are plated with a density of 5000 cells/well in 384-well poly-D-lysin plates and incubated for 1 day at 37° C., 5% CO2 in DMEM medium, 10% FCS, 1×NEAA, Puromycin (0.5 μg/ml) and G418 (1 mg/ml). Then the medium is changed to a identical medium without FCS and containing Octanoate-BSA (final concentration 100 μM each) and compound in DMSO (final DMSO concentration 0.3%). After incubation for 5 hours acylghrelin in the medium is measured by ELISA
The medium sample is diluted 1:25 in Elisa buffer, A 25 ul aliquot is transferred to a 384-well ELISA plate previously washed 4 times with 100 μL wash buffer, and 25 μl tracer-solution is added. After incubation overnight (˜20 h) at 4° C. temperature the plate is washed 4 times with 100 μl wash-buffer per well. Finally 50 μl Ellman's reagent is added to each well and the plate is incubated in the dark for 20 minutes. The absorbance is measured at 405 nm in an Envision multilabel reader and the amount of acylated ghrelin is calculated according to a acylated ghrelin standard curve provided in the same plate.
The analysis of the data is performed by calculation of the percentage of acyl-ghrelin produced in the presence of test compound compared to the amount of acyl-ghrelin produced in the vehicle control samples. An inhibitor of the GOAT enzyme will give values between 100% CTL (no inhibition) and 0% CTL (complete inhibition). IC50 values are calculated with Assay Explorer or other suited software based on curve fitting of results of 8 different compound concentrations.

Chain of human GOAT (Q96T53 whole entry): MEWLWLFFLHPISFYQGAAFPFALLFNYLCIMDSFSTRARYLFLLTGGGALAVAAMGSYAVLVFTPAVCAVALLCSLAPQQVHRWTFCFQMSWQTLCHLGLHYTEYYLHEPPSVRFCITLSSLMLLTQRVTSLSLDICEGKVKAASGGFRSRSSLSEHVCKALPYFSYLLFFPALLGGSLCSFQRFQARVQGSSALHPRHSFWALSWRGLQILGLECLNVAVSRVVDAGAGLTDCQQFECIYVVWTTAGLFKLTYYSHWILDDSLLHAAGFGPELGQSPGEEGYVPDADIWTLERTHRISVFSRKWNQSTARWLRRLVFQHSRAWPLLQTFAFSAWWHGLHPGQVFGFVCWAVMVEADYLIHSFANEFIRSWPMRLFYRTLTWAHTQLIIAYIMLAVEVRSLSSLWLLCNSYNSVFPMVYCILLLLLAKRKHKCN

IC50 | SMILES
0.33 nM | Cc1nc2nonc2c(N)c1Cc1ccc(C#N)c(OCC(F)(F)F)n1 [Example 107, 6-(7-Amino-5-methyl-[1,2,5]oxadiazolo[3,4-b]pyridin-6-ylmethyl)-2-(2,2,2-trifluoro-ethoxy)-nicotinonitrile]
1.7 nM | Cc1nc2nonc2c(N)c1Cc1ccc(C#N)cn1 [Example 4, 6-(7-Amino-5-methyl-[1,2,5]oxadiazolo[3,4-b]pyridin-6-ylmethyl)-nicotinonitrile]
0.48 nM | Cc1nc2nonc2c(N)c1Cc1cccc(C(C)(C)C#N)n1 [Example 63, 2-[6-(7-Amino-5-methyl-[1,2,5]oxadiazolo[3,4-b]pyridin-6-ylmethyl)-pyridin-2-yl]-2-methyl-propionitrile]
4.4 nM | Cc1nc2nonc2c(N)c1Cc1ccc(F)c(C#N)n1 [Example 25, 6-(7-Amino-5-methyl-[1,2,5]oxadiazolo[3,4-b]pyridin-6-ylmethyl)-3-fluoro-pyridine-2-carbonitrile]
0.56 nM | Cc1nc2nonc2c(N)c1Cc1ccc(NCCF)c(C#N)n1 [Example 153, 6-(7-Amino-5-methyl-[1,2,5]oxadiazolo[3,4-b]pyridin-6-ylmethyl)-3-(2-fluoro-ethylamino)-pyridine-2-carbonitrile]
0.6 nM | Cc1nc2nonc2c(N)c1Cc1ccc(N2CCOCC2)c(C#N)n1 [Example 152, 6-(7-Amino-5-methyl-[1,2,5]oxadiazolo[3,4-b]pyridin-6-ylmethyl)-3-morpholin-4-yl-pyridine-2-carbonitrile]
0.12 nM | Cc1nc2nonc2c(N)c1Cc1ccc(C#N)c(OCC(C)(C)O)n1 [Example 105, 6-(7-Amino-5-methyl-[1,2,5]oxadiazolo[3,4-b]pyridin-6-ylmethyl)-2-(2-hydroxy-2-methyl-propoxy)-nicotinonitrile]
1.2 nM | Cc1nc2nonc2c(N)c1Cc1ccc(-n2cc(F)cn2)c(C#N)n1 [Example 155, 6-(7-Amino-5-methyl-[1,2,5]oxadiazolo[3,4-b]pyridin-6-ylmethyl)-3-(4-fluoro-pyrazol-1-yl)-pyridine-2-carbonitrile]
9 nM | Cc1nc2nonc2c(N)c1Cc1ccc([S+](C)[O-])cn1 (stereo not shown) [Example 87, 6-(5-Methanesulfinyl-pyridin-2-ylmethyl)-5-methyl-[1,2,5]oxadiazolo[3,4-b]pyridin-7-ylamine]
4.6 nM | Cc1nc2nonc2c(N)c1Cc1ccc(C#N)c(S(C)(=O)=O)n1 [Example 162, 6-(7-Amino-5-methyl-[1,2,5]oxadiazolo[3,4-b]pyridin-6-ylmethyl)-2-methanesulfonyl-nicotinonitrile]
0.95 nM | Cc1nc2nonc2c(N)c1Cc1cccc(Br)n1 [Example 7, 6-(6-Bromo-pyridin-2-ylmethyl)-5-methyl-[1,2,5]oxadiazolo[3,4-b]pyridin-7-ylamine]
0.1 nM | Cc1nc2nonc2c(N)c1Cc1ccc(C#N)c(OCC2(C)COC2)n1 [Example 111, 6-(7-Amino-5-methyl-[1,2,5]oxadiazolo[3,4-b]pyridin-6-ylmethyl)-2-(3-methyl-oxetan-3-ylmethoxy)-nicotinonitrile]
0.15 nM | Cc1nc2nonc2c(N)c1Cc1ccc(C#N)c(NC2CC(F)(F)C2)n1 [Example 140, 6-(7-Amino-5-methyl-[1,2,5]oxadiazolo[3,4-b]pyridin-6-ylmethyl)-2-(3,3-difluoro-cyclobutylamino)-nicotinonitrile]
0.093 nM | Cc1nc2nonc2c(N)c1Cc1ccc(C#N)c(OCC(F)F)n1 [Example 109, 6-(7-Amino-5-methyl-[1,2,5]oxadiazolo[3,4-b]pyridin-6-ylmethyl)-2-(2,2-difluoro-ethoxy)-nicotinonitrile]
0.033 nM | Cc1nc2nonc2c(N)c1Cc1ccc(C#N)c(N2CCOCC2)n1 [Example 136, 6-(7-Amino-5-methyl-[1,2,5]oxadiazolo[3,4-b]pyridin-6-ylmethyl)-2-morpholin-4-yl-nicotinonitrile]

The next lines start with the compound.

SMILES | IC50
Cc1nc2nonc2c(N)c1Cc1ncc(C#N)c(C(C)(F)F)n1 [Example 82, 2-(7-amino-5-methyl-[1,2,5]oxadiazolo[3,4-b]pyridin-6-ylmethyl)-4-(1,1-difluoroethyl)pyrimidine-5-carbonitrile] | 1 nM
Cc1nc2nonc2c(N)c1Cc1ccc(OC(F)F)c(C(N)=O)n1 [Example 90, 6-(7-Amino-5-methyl-[1,2,5]oxadiazolo[3,4-b]pyridin-6-ylmethyl)-3-difluoromethoxy-pyridine-2-carboxylic Acid Amide] | 0.54 nM
Cc1nc2nonc2c(N)c1Cc1ccc(C(F)F)cn1 [Example 9, 6-(5-Difluoromethyl-pyridin-2-ylmethyl)-5-methyl-[1,2,5]oxadiazolo[3,4-b]pyridin-7-ylamine] | 0.44 nM
Cc1nc2nonc2c(N)c1Cc1ccc(-c2cnccn2)c(N)n1 [Example 69, 6-(6-Amino-5-pyrazin-2-yl-pyridin-2-ylmethyl)-5-methyl-[1,2,5]oxadiazolo[3,4-b]pyridin-7-ylamine] | 0.58 nM
Cc1nc2nonc2c(N)c1Cc1cccc(-c2cncn2C)n1 [Example 59, 5-Methyl-6-[6-(3-methyl-3H-imidazol-4-yl)-pyridin-2-ylmethyl]-[1,2,5]oxadiazolo[3,4-b]pyridin-7-ylamine] | 0.34 nM
Cc1nc2nonc2c(N)c1Cc1ccc(C#N)c(NCC(C)(C)C#N)n1 [Example 146, 6-(7-Amino-5-methyl-[1,2,5]oxadiazolo[3,4-b]pyridin-6-ylmethyl)-2-(2-cyano-2,2-dimethyl-ethylamino)-nicotinonitrile] | 1.1 nM
Cc1nc2nonc2c(N)c1Cc1ccc(-c2cnn3c2CCC3)c(N)n1 [Example 65, 6-[6-Amino-5-(5,6-dihydro-4H-pyrrolo[1,2-b]pyrazol-3-yl)-pyridin-2-ylmethyl]-5-methyl-[1,2,5]oxadiazolo[3,4-b]pyridin-7-ylamine] | 0.29 nM
Cc1nc2nonc2c(N)c1Cc1ccc(C(F)(F)F)c(C(=O)C(C)C)n1 [Example 49, 1-[6-(7-Amino-5-methyl-[1,2,5]oxadiazolo[3,4-b]pyridin-6-ylmethyl)-3-trifluoromethyl-pyridin-2-yl]-2-methyl-propan-1-one] | 0.15 nM
Cc1nc2nonc2c(N)c1Cc1cc(C(N)=O)ccn1 [Example 29, 2-(7-Amino-5-methyl-[1,2,5]oxadiazolo[3,4-b]pyridin-6-ylmethyl)-isonicotinamide] | 16 nM
Cc1nc2nonc2c(N)c1Cc1nccc(C(F)(F)F)n1 [Example 34, 5-Methyl-6-(4-trifluoromethyl-pyrimidin-2-ylmethyl)-[1,2,5]oxadiazolo[3,4-b]pyridin-7-ylamine] | 3.2 nM
Cc1nc2nonc2c(N)c1Cc1cc(C(F)(F)F)cc(C#N)n1 [Example 36, 6-(7-amino-5-methyl-[1,2,5]oxadiazolo[3,4-b]pyridin-6-ylmethyl)-4-(trifluoromethyl)pyridine-2-carbonitrile] | 6.9 nM
Cc1nc2nonc2c(N)c1Cc1ccc(C#N)c(NCCC(F)(F)F)n1 [Example 145, 6-(7-Amino-5-methyl-[1,2,5]oxadiazolo[3,4-b]pyridin-6-ylmethyl)-2-(3,3,3-trifluoro-propylamino)-nicotinonitrile] | 0.32 nM
Cc1nc2nonc2c(N)c1Cc1ccc(Br)c(=O)[nH]1 [Example 163, 6-(7-Amino-5-methyl-[1,2,5]oxadiazolo[3,4-b]pyridin-6-ylmethyl)-3-bromo-1H-pyridin-2-one] | 2.5 nM
